From patent US8337903B2, “Antitumoral agents with a benzophenanthridine structure and formulations containing them” (Indena S.p.A., priority 2008, dated 2012)

Tests used:
[1] = tested on: melanoma stem cells; experiment: in vitro inhibiting activity towards melanoma stem cells; type: cell-based; conditions: concentration of 200 ng/ml
Text: (§1) Its behaviour towards other oncological stem cells is identical. These alkaloids can consequently be considered new-generation antitumoral agents, which are able to treat human tumors effectively. For tumors of the colon, liver, pancreas and cervix the most appropriate form is the salt with luteic acid dispersed in a suitable vehicle, whereas for the treatment of skin tumors such as melanoma, the salt with a phosphatidic acid can advantageously be administered topically directly to the area affected by the tumor.

[2] = tested on: colon stem cells; experiment: in vitro inhibiting activity towards colon stem cells; type: cell-based; conditions: concentration of 200 ng/ml
Text: as §1

[3] = tested on: oropharynx, head and neck tumors, melanoma and cervical tumors; experiment: treatment of oropharynx, head and neck tumors, melanoma and cervical tumors; type: in vivo; conditions: oral and topical administration; compared with the unsalified alkaloid
Text: The product most suitable for oral and topical administration is the salt of sanguinarine with luteic acid.

## luteic acid sanguinarine salt [salt of sanguinarine with luteic acid]
[1]
  inhibiting activity towards melanoma stem cells: potent inhibiting activity
[2]
  inhibiting activity towards colon stem cells: potent inhibiting activity
[3]
  effectiveness in the treatment of tumors: particularly effective
